Experimental data taken from PubChem BioAssay AID2060507 (Molecular Pharmacology Branch, DTP, NCI, 2025).
Several values for one entry are separate records, joined by “and”; a condition that tells them apart may be missing. Equal entries are not always repeated. Each block holds one compound with its values, some of them ahead of it.

Test system: 519858-162-T-J1-PDC complex spheroid viability
Assay: Anticancer human tumor 519858-162-T-J1-PDC patient-derived colon adenocarcinoma cell line growth inhibition [GQUAD]
Settings: for viability, T/C: stronger effect = lower value
Description: DNA G-quadruplex Stabilizer Agents in Combinations in Complex Spheroids
A high-throughput screen of multi-cell type tumor spheroids was designed to identify active combinations of DNA G-quadruplex stabilizer agents and targeted small molecules. Complex spheroids include a stromal component modeled by human endothelial cells (HUVEC) and fibroblasts modeled by human mesenchymal stem cells (MSCs). The concentration ranges selected for each drug and investigational agent were based upon clinically achievable concentrations if the clinical Cmax of the agent was known.
Compounds. The drugs and investigational agents: pidnarulex (CX-5461; NSC782164), APTO-253 (NSC789042), BRACO-19 (NSC847499), peposertib (NSC802822), ceralasertib (NSC780249), elimusertib (NSC800525), camonsertib (NSC841442), AZD-1390 (NSC803789), olaparib (NSC753686), talazoparib (NSC767125), ART-558 (NSC835418), sotorasib (NSC818433), MRTX-1133 (NSC836407), SN-38 (NSC673596), topotecan (NSC609699), etoposide (NSC141540), doxorubicin (NSC123127), gemcitabine (NSC613327), 5-fluorouracil (NSC19893), paclitaxel (NSC125973), vemurafenib (NSC761431), panobinostat (NSC761190), R-306465 (JNJ-16241199; NSC773264), adavosertib (NSC754352), TP-3654 (NSC805149), carboplatin (NSC241240), KSQ-4279 (NSC840948), and staurosporine (NSC755774) were obtained from the National Cancer Institute (NCI) Developmental Therapeutics Program Chemical Repository (34). The FDA-approved anticancer drug set is available from the NCI Developmental Therapeutics Program. […] The stock solutions were prepared in dimethyl sulfoxide (DMSO, Sigma-Aldrich, St. Louis, MO, cat. D2650) at 800-fold the tested concentration and stored at -70 degrees C prior to their use. All drugs and investigational agents were tested over a range starting from a high concentration at or near the clinical Cmax and decreasing in half-log increments. If the clinical Cmax for an agent had not been determined, the highest concentration tested was 10 microM.
2.3 Cell Culture. All cells were maintained in an incubator at 37 degrees C and 5% CO2 with 95% humidity. The PDC lines were cultured according to standard operating procedures established by the NCI PDMR. All PDCs were thawed and cultured in Matrigel-coated flasks prepared with a working solution of 1X Ham's F-12 nutrient mix, without supplementation (Invitrogen, cat. 11765054), 100 U/mL penicillin-streptomycin (Invitrogen, cat. 15140122), and 2.5% Matrigel (Corning Inc., cat. 354248) for the first three passages. The 857933-349-R-J2-PDC line was cultured in 6C/Colon 1B media, which includes advanced DMEM/F-12 (Thermo Fisher Scientific, cat. 12634028), 10 mM HEPES (Thermo Fisher Scientific, cat. 15630080), 1X GlutaMAX supplement (Thermo Fisher Scientific, cat. 35050061), 0.1 mg/mL primocin (InvivoGen, cat. ant-pm-2), 10% defined fetal bovine serum, heat inactivated (HyClone Laboratories Inc., cat. SH30070.03HI), 50% L-WRN conditioned media (ATCC, cat. CRL-3276), 1.25 mM N-Acetyl-L-cysteine (Sigma-Aldrich, cat. A9165), 10 mM nicotinamide (Sigma-Aldrich, cat. N0636), 1X B-27 supplement (Thermo Fisher Scientific, cat. 17504044), 1X N-2 supplement (Thermo Fisher Scientific, cat. 17502048), 10 microM Y-27632 dihydrochloride (Tocris Bioscience, cat. 1254), and 50 ng/mL human EGF recombinant protein (Thermo Fisher Scientific, cat. PHG0311). The 485176-168-R4-J1-PDC line was cultured in Panc media, which includes all 6C/Colon 1B media components plus 100 ng/mL human FGF-10 (Thermo Fisher Scientific, cat. 100-26), 500 nM SB-431542 (Selleckchem, cat. S1067), and gastrin (Tocris, cat. 3006).
[…]
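Also: spheroids exposed to compounds for 7 days.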
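For viability, T/C in this document: 100% = DMSO vehicle control viability.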

Structure (SMILES): COc1ccc([C@@H](O)c2cc(-c3ncnc4cc(N5CCOCC5)ccc34)c(F)cc2Cl)nn1 + CN(C)c1ccc(Nc2c3ccc(NC(=O)CCN4CCCC4)cc3nc3cc(NC(=O)CCN4CCCC4)ccc23)cc1
- IC50 (curve of first compound, second compound 0.0316 µM): > 10 µM
- IC50 (curve of first compound, second compound 0.1 µM): > 10 µM
- IC50 (curve of first compound, second compound 0.316 µM): > 10 µM
- IC50 (curve of first compound, second compound 1 µM): > 10 µM
- IC50 (curve of first compound, second compound 3.16 µM): > 10 µM
- IC50 (curve of first compound, second compound 10 µM): > 10 µM
- viability, T/C (second compound 0.0316 µM, first compound 0.0316 µM): 113%
- viability, T/C (second compound 0.0316 µM, first compound 0.1 µM): 130%
- viability, T/C (second compound 0.0316 µM, first compound 0.316 µM): 110%
- viability, T/C (second compound 0.0316 µM, first compound 1 µM): 82.1%
- viability, T/C (second compound 0.0316 µM, first compound 3.16 µM): 98%
- viability, T/C (second compound 0.0316 µM, first compound 10 µM): 97.7%
- viability, T/C (second compound 0.1 µM, first compound 0.0316 µM): 119%
- viability, T/C (second compound 0.1 µM, first compound 0.1 µM): 90.7%
- viability, T/C (second compound 0.1 µM, first compound 0.316 µM): 92.1%
- viability, T/C (second compound 0.1 µM, first compound 1 µM): 148%
- viability, T/C (second compound 0.1 µM, first compound 3.16 µM): 87.9%
- viability, T/C (second compound 0.1 µM, first compound 10 µM): 127%
- viability, T/C (second compound 0.316 µM, first compound 0.0316 µM): 86.8%
- viability, T/C (second compound 0.316 µM, first compound 0.1 µM): 108%
- viability, T/C (second compound 0.316 µM, first compound 0.316 µM): 95.2%
- viability, T/C (second compound 0.316 µM, first compound 1 µM): 92.5%
- viability, T/C (second compound 0.316 µM, first compound 3.16 µM): 104%
- viability, T/C (second compound 0.316 µM, first compound 10 µM): 85.8%
- viability, T/C (second compound 1 µM, first compound 0.0316 µM): 92.6%
- viability, T/C (second compound 1 µM, first compound 0.1 µM): 75.7%
- viability, T/C (second compound 1 µM, first compound 0.316 µM): 72%
- viability, T/C (second compound 1 µM, first compound 1 µM): 88.7%
- viability, T/C (second compound 1 µM, first compound 3.16 µM): 57.4%
- viability, T/C (second compound 1 µM, first compound 10 µM): 82.2%
- viability, T/C (second compound 3.16 µM, first compound 0.0316 µM): 102%
- viability, T/C (second compound 3.16 µM, first compound 0.1 µM): 65.1%
- viability, T/C (second compound 3.16 µM, first compound 0.316 µM): 53.8%
- viability, T/C (second compound 3.16 µM, first compound 1 µM): 66.3%
- viability, T/C (second compound 3.16 µM, first compound 3.16 µM): 94.1%
- viability, T/C (second compound 3.16 µM, first compound 10 µM): 83.5%
- viability, T/C (second compound 10 µM, first compound 0.0316 µM): 74.5%
- viability, T/C (second compound 10 µM, first compound 0.1 µM): 95.2%
- viability, T/C (second compound 10 µM, first compound 0.316 µM): 73.4%
- viability, T/C (second compound 10 µM, first compound 1 µM): 86.1%
- viability, T/C (second compound 10 µM, first compound 3.16 µM): 72.4%
- viability, T/C (second compound 10 µM, first compound 10 µM): 88.4%

- IC50 (curve of compound): > 10 µM
Structure (SMILES): COc1cc(C2c3cc4c(cc3C(OC3OC5COC(C)OC5C(O)C3O)C3COC(=O)C23)OCO4)cc(OC)c1O (centres undefined)
- viability, T/C (compound 0.0316 µM): 165% and 107% and 86%
- viability, T/C (compound 0.1 µM): 90.6% and 89.7% and 81.6%
- viability, T/C (compound 0.316 µM): 82.8% and 98% and 61.3%
- viability, T/C (compound 1 µM): 123% and 112% and 70.1%
- viability, T/C (compound 3.16 µM): 75% and 96.2% and 89.7%
- viability, T/C (compound 10 µM): 80.6% and 72.3% and 83.6%
